# Measurements taken from US10611777B2, “Imidazopyridazine compounds and their use” (HUTCHISON MEDIPHARMA LIMITED, priority 2014, dated 2020).
# Legend:
# [1] = system: anti-IgD induced B cell activation; test: Anti-IgD antibody induced B cells activation in rat whole blood (ex vivo after oral dosing)
# Description: Activation of B cells (B220+) in rat whole blood with anti-IgD antibody leading to activation via Ig receptors is known to involve PI3K pathways and sensitive to modulation by PI3Kδ inhibitors. A pharmacodynamics assay was developed to assess activity of PI3Kδ inhibitors ex vivo following oral administration of inhibitors to rats.
# Wistar rats (female, 6-8 weeks old) were used in the experiments. The dose dependency, time course study and PKPD relationship of compound 4 were conducted in normal Wistar rats. […] The control group (6 rats) was treated with the vehicle alone. […] The heparin anti-coagulated blood was mixed with anti-rat-IgD, then was incubated at 37° C. under 5% CO2 overnight. Fluorescence signal for CD86 on B220 (B cells) positive cells was detected using a flow cytometer (BD FACSCalibur, BD Biosciences) and data were analyzed by CellQuest software. Plasma was collected to measure compound 4 levels.
# [2] = system: Wistar rats with established type II collagen-induced arthritis; test: Rat collagen II induced arthritis (CIA) model; format: in vivo
# Description: Rat collagen induced arthritis is an experimental model of polyarthritis that has been widely used for nonclinical testing of numerous anti-arthritic agents that are either under nonclinical or clinical investigation or are currently used as therapeutics in this disease.
# Wistar rats were immunized intradermally with 200 μg bovine collagen II emulsified in Freund's incomplete adjuvant (IFA, Sigma, US) on day 0 and day 7. The hind paw volumes were measured before and after the immunization. […] The naive group was not administered. YiSaiPu (10 mg/kg), a human tumor necrosis factor receptor p75 Fc fusion protein, was administered with intraperitoneal injection on days 10, 12 and 14 as a positive control. The study was terminated on day 18.
# PI3K-α (p110α/p85α) = PI3K-α (p110α/p85α) (Homo sapiens (Human), UniProt P42336); test: Fluorescent determination of PI3K enzyme activity (Transcreener KINASE Assay), PI3K-α; format: biochemical; conditions: inhibition rate at 1 μM
# Description: Inhibition rates were calculated as follow: IH %=(ADP amount under 2% DMSO well−ADP amount under test compound well)/ADP amount under 2% DMSO well×100%.
# PI3K-β (p110β/p85α) = PI3K-β (p110β/p85α) (Homo sapiens (Human), UniProt P42338); test: Fluorescent determination of PI3K enzyme activity (Transcreener KINASE Assay), PI3K-β; format: biochemical; conditions: inhibition rate at 1 μM;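 also: Far-red fluorescence polarization immunoassay detecting ADP produced by the kinase, 80 min enzyme reaction at room temperature, inhibition relative to ADP formed in 2% DMSO control wells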
# Description: (§1) PI3K kinases including p110α/p85α and p110γ were purchased from Invitrogen, p110δ/p85α and p110β/p85α were from Millipore.
# (§2) It is a universal, homogenous, high throughput screening (HTS) technology using a far-red, competitive fluorescence polarization immunoassay based on the defection of ADP to monitor the activity of enzymes that catalyze group transfer reactions. […] The reaction mixture was added into desired wells of a 96-well plate. The plate was sealed and incubated for 80 min at room temperature. • 2) Next, 25 uL ADP detection mix was added into each well. The plate was sealed again and incubated for 60 min at room temperature. Then fluorescence polarization was measured by Tecan Infinite F500 Reader.
# (§3) Data was analyzed and IC50 values were generated using the add-in software for Microsoft Excel, Xlfit™ (version 5.3).
# [3] = system: AKT phosphorylation (p-AKT Ser473) in Ramos cells; test: Inhibition of AKT phosphorylation in Ramos cell line; format: cell-based; conditions: anti-IgM stimulated
# Description: 6×10^4/mL Ramos cells (ATCC, CRL-1596; cells were cultured in RPMI1640 media with 10% FBS) were seeded into a 96-well plate (Bookman Dickinson, No. 356692) at 80 uL/well, 4,800 cells/well. After incubations for 3 hr at 37° C. under 5% CO2, Ramos cells were treated with 10 uL/well various concentrations of test compound (final concentrations of the test compound: 1 uM, 0.3 uM, 0.1 uM, 0.037 uM, 0.012 uM, 0.0041 uM, 0.0014 uM and 0.0005 uM) or 0.3% DMSO for 30 min, and then were stimulated with 10 uL/well 1 ug/ml Anti-IgM (Jackson Immunoresearch, 709-006-073) for 15-20 min. • 1) Cells were fixed with 100 μL of 4% pre-warmed Paraformaldehyde (2% final concentration), and incubated for 45 min at room temperature. • 2) The paraformaldehyde solution was removed. 100 μL of ice-cold methanol was added into each well and the plate was left at 4° C. for 30 min. • 3) The cells were washed for three times with 160 μPBS. • 4) 40 μL 1:350 dilution of Rabbit anti-p-AKT(Ser^473) antibody (Cell Signaling Technology, 4060 L) in antibody dilution buffer (1% BSA, in PBS) were added into each well. […]
# as §3
# SU-DHL-6 cell line = test: In vitro cell proliferation assay in SU-DHL-6 cell line; format: cell-based; conditions: SU-DHL-6, 72 h, CCK-8
# Description: Growth inhibition assays were carried out using 10% FBS supplemented media. Cells were seeded at a concentration of 15000 cells/well in a 96-well plate. Test compound dilution at different concentrations (final concentrations of the test compound: 1 uM, 0.3 uM, 0.1 uM, 0.037 uM, 0.012 uM, 0.0041 uM, 0.0014 uM and 0.0005 uM) were added after 24 hours. Growth was assessed using Cell Counting Kit-8 (CCK-8) (Dojindo, Cat # CK04) after the test compound were incubated for 72 h. Absorbance was read at the wave length 450 nm on Multiskan MK3 machine (Thermo).
# as §3
# PI3K-δ (p110δ/p85α) = PI3K-δ (p110δ/p85α) (Homo sapiens (Human), UniProt O00329); test: Fluorescent determination of PI3K enzyme activity (Transcreener KINASE Assay), PI3K-δ; format: biochemical; conditions: for PI3K-δ IH%: inhibition rate at 1 μM
# Description: as §1, §2, §3
# PI3K-γ (p110γ) = PI3K-γ (p110γ) (Homo sapiens (Human), UniProt P48736); test: Fluorescent determination of PI3K enzyme activity (Transcreener KINASE Assay), PI3K-γ; format: biochemical; conditions: for PI3K-γ IH%: inhibition rate at 1 μM;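 as to all read-outs here: p110γ enzyme reaction for 80 min at room temperature, ADP formed measured by far-red competitive fluorescence polarization immunoassay, inhibition relative to wells with 2% DMSO only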
# Description: as §1, §2, §3
# [4] = system: PI3Kδ signaling in basophils from human whole blood; test: Inhibition of PI3Kδ signaling in basophils from human whole blood; format: cell-based; conditions: anti-IgE stimulated, CD63
# Description: • 1) Heparinized human whole blood was mixed and pipetted into the 96 well v-bottom plate, 100 μL per well. • 2) 10 μL of stimulation buffer (1 mg/mL stock, final concentration of Recombinant human IL-3; 20 ng/mL) was added to the whole blood samples of each well and vortex gently. The samples were incubated for 20 min at 37° C. • 3) 10 uL/well of test compound dilution (final concentrations of the test compound in well: 1 uM, 0.3 uM, 0.1 uM, 0.037 uM, 0.012 uM, 0.0041 uM, 0.0014 uM and 0.0005 uM) or vehicle (0.2% DMSO) was added into each well of the plate and the plate was incubated for 1.5 h at 37° C. • 4) 100 μL of the Goat anti-human IgE (1 mg/mL stock, final concentration of IgE: 0.31 ug/mL) working solution was added into each well of the plate. Vortex all the wells once more and incubate for 20 min at 37° C. • 5) Labeling with staining antibody: Degranulation was stopped by incubating the samples on ice for 5 min. 6 μL of staining antibody mixture (anti-CD63-FITC and anti-IgE-PE) was added into each well. […] The plate was incubated in a covered ice bath until analysis. • 10) Flow cytometric analysis: Cells were analyzed by flow cytometry using the blue-green excitation light (488 nm argon-ion laser, FACSCalibur, CELLQuest software).
# as §3
# Sequence of PI3K-β (p110β/p85α) (P42338 whole entry, species assumed): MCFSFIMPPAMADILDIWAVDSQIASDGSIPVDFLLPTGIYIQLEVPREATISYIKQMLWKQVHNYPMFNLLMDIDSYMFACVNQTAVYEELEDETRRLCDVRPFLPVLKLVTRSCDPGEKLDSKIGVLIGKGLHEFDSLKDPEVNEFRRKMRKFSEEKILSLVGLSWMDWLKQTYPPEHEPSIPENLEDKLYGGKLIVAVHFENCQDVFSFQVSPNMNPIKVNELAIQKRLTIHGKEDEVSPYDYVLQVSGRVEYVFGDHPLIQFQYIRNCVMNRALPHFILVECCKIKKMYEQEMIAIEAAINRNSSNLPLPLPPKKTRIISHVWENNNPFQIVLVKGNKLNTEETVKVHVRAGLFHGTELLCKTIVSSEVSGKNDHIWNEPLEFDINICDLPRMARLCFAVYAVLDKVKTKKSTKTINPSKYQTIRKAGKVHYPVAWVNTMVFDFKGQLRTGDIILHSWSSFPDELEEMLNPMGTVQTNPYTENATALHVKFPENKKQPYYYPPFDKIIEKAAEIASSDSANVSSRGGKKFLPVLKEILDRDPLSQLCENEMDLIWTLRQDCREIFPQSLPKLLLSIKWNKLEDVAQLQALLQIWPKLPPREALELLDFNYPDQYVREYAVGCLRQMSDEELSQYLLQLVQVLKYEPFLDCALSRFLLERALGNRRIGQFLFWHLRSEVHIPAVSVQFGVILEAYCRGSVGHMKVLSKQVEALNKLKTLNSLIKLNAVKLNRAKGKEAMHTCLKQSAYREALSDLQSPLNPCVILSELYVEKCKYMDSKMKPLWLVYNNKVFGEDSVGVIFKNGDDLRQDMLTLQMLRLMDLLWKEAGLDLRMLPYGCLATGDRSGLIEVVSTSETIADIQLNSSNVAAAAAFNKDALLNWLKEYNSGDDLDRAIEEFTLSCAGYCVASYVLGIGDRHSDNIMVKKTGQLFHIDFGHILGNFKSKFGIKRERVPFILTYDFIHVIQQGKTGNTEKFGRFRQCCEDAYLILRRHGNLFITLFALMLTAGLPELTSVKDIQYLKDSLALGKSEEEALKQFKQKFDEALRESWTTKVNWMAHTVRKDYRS
# Sequence of PI3K-β (p110β/p85α) (P27986 whole entry partner, species assumed): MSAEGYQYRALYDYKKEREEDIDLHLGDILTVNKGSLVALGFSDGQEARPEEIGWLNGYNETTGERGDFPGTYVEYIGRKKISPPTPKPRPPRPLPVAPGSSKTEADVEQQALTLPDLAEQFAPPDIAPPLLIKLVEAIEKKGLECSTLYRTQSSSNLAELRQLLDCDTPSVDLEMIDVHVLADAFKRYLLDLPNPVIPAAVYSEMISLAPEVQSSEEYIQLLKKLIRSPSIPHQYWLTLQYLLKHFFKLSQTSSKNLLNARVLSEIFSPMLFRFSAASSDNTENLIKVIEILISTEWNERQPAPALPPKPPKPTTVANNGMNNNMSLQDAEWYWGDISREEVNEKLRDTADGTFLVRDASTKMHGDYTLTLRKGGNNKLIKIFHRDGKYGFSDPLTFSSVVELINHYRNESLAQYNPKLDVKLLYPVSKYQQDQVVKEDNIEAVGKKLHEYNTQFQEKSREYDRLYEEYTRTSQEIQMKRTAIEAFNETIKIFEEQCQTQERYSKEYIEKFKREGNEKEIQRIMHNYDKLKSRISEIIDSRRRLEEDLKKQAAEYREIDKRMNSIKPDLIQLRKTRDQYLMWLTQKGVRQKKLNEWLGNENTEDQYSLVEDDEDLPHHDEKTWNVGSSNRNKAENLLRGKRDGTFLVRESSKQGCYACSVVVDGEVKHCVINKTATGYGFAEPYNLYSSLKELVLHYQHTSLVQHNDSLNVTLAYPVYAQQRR
# Sequence of PI3K-α (p110α/p85α) (P42336 whole entry, species assumed): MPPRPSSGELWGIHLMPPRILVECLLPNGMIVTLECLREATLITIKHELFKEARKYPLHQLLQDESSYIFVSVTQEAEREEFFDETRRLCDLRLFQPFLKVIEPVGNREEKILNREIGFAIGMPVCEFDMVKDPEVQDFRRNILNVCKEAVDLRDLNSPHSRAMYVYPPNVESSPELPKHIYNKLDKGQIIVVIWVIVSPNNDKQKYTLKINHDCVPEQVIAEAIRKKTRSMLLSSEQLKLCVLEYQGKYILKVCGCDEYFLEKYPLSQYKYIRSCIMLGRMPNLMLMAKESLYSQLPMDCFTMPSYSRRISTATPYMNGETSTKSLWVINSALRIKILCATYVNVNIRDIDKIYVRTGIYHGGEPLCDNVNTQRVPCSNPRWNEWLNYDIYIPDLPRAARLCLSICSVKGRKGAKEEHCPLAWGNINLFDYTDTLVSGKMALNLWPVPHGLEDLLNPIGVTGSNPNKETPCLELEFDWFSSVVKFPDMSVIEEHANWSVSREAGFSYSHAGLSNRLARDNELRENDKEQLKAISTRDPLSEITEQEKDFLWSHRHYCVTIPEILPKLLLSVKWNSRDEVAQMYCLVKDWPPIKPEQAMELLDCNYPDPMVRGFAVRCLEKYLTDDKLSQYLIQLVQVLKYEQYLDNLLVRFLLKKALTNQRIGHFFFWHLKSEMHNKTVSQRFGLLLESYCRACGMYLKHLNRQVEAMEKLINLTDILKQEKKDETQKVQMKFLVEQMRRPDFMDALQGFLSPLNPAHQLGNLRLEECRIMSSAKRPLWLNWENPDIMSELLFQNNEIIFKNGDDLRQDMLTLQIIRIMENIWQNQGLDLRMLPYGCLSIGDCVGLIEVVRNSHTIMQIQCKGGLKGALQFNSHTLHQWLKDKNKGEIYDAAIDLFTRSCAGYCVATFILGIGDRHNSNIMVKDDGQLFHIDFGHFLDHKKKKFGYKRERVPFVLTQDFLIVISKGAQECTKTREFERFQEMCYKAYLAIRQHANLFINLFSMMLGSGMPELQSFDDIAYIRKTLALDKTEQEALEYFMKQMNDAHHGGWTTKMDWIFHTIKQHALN
# Sequence of PI3K-α (p110α/p85α) (P27986 whole entry partner, species assumed): as the sequence (P27986 whole entry partner, species assumed) above
# Sequence of PI3K-γ (p110γ) (P48736 whole entry, species assumed): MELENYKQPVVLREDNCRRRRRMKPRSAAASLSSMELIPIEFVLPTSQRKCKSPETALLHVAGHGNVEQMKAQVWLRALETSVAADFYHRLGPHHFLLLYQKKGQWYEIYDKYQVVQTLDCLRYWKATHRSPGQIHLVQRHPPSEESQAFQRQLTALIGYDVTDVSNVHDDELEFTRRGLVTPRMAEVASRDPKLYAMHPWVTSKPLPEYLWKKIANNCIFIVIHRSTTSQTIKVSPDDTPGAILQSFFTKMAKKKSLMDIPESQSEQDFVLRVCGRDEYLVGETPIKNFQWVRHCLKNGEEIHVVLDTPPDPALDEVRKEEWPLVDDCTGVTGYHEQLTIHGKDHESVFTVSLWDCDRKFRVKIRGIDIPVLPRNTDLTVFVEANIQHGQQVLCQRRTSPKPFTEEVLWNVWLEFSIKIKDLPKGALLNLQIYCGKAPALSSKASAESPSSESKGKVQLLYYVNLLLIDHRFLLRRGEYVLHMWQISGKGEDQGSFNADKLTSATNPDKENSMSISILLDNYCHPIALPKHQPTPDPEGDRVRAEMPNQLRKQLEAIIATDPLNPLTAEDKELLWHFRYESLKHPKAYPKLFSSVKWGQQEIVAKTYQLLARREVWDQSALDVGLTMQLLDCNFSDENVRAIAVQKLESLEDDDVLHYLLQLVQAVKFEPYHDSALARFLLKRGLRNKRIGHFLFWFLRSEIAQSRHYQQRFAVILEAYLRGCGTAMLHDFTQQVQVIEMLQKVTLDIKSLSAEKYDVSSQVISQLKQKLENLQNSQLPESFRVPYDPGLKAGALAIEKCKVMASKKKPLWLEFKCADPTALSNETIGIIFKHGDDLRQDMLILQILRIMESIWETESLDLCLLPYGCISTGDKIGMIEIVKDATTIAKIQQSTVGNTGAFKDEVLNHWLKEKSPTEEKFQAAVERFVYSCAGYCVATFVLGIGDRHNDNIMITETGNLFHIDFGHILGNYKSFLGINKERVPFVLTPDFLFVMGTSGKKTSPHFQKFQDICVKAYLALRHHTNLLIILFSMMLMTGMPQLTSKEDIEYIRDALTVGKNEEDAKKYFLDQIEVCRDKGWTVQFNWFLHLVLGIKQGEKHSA
# Sequence of PI3K-δ (p110δ/p85α) (O00329 whole entry, species assumed): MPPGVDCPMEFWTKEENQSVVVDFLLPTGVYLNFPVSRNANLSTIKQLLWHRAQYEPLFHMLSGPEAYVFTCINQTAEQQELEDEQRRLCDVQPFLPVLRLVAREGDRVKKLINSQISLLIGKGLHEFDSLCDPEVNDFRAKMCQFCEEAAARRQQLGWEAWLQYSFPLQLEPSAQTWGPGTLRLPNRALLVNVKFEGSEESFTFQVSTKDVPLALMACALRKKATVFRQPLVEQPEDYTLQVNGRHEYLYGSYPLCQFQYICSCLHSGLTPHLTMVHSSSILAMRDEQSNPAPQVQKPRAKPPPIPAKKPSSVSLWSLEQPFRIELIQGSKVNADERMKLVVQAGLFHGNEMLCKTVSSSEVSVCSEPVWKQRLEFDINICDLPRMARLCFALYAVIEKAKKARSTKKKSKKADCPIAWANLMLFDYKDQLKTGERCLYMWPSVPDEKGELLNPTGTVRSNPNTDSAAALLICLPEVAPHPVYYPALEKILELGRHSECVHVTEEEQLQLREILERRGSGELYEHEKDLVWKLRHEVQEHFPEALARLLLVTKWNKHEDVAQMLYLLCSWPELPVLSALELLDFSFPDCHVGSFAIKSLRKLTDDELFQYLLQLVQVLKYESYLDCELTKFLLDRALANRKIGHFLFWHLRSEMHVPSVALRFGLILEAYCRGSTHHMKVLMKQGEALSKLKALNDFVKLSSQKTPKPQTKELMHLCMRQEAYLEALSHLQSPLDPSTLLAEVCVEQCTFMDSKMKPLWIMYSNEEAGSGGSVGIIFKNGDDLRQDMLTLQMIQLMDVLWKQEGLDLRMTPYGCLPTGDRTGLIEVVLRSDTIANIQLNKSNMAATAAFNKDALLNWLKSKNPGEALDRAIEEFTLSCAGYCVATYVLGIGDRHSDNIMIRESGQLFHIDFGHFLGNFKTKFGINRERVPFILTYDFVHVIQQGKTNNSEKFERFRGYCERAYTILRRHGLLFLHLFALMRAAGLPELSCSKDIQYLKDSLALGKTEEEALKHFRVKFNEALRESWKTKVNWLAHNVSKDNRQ
# Sequence of PI3K-δ (p110δ/p85α) (P27986 whole entry partner, species assumed): as the sequence (P27986 whole entry partner, species assumed) above
PI3K-β IH% (PI3K-β (p110β/p85α)) [%],PI3K-δ IH% (PI3K-δ (p110δ/p85α)) [%],PI3K-γ IH% (PI3K-γ (p110γ)) [%],Structure (SMILES),further results
,,,"C[C@H](Nc1ncnc(N)c1C#N)c1cc2ncc(Cl)n2nc1-c1ccccc1 [Compound 4, (S)-4-amino-6-((1-(3-chloro-6-phenylimidazo[1,2-b]pyridazin-7-yl)ethyl)amino)pyrimidine-5-carbonitrile]","EC50 ([1]; Rattus norvegicus, B-cell, po, at 2 hr post-dose, read-out: EC50 (corresponding plasma concentration)): 1.49 ng/mL; anti-IgD induced B cell activation in rat whole blood, ex vivo ([1]; oral, dose range 0.01 to 3 mg/kg, p<0.01): inhibited anti-IgD induced B cell activation in rat whole blood, ex vivo, in a dose- and time-dependent manner; mean paw volume at the end of the treatment period compared to vehicle-treated diseased animals ([2]; PO QD days 10-16, p<0.01, all doses except lowest dose 0.03 mg/kg): significantly decreased; effects on the parameters associated with established type II collagen-induced arthritis ([2]; daily oral treatment): dose-dependent beneficial effects"
,,,C[C@H](Nc1ncnc(N)c1-c1nn[nH]n1)c1cc2ncc(Cl)n2nc1-c1ccccc1 [Compound 21],PI3K-α IH% (PI3K-α (p110α/p85α)): 21.7%
76.7,,,Cc1cnc2cc([C@H](C)Nc3ncnc(N)c3C#N)c(-c3ccccc3)nn12 [Compound 22],PI3K-α IH% (PI3K-α (p110α/p85α)): 13.6%
28.7,,,Cc1cnc2cc([C@H](C)Nc3ncnc4[nH]cnc34)c(-c3ccccc3)nn12 [Compound 23],PI3K-α IH% (PI3K-α (p110α/p85α)): 3.2%; IC50 [3]: 12 nM; IC50 (SU-DHL-6 cell line): 78 nM
11.1,39.8,18.8,CCC(Nc1ncnc(N)c1C#N)c1cc2ncc(Cl)n2nc1-c1ccccn1 (stereo not drawn) [Compound 28],
3.7,8.3,−19.3,C[C@H](Nc1nc(N)ncc1C#N)c1cc2ncc(Cl)n2nc1-c1ccccc1 [Compound 34],
−14.1,68.9,5.5,COc1cc(-c2c(N)ncnc2N[C@@H](C)c2cc3ncc(Cl)n3nc2-c2ccccc2)ccn1 [Compound 50],
8.5,60.3,−4.7,"C[C@H](Nc1nc(O)nc(N)c1C#N)c1cc2ncc(Cl)n2nc1-c1ccccc1 [Compound 55, (S)-4-amino-6-((1-(3-chloro-6-phenylimidazo[1,2-b]pyridazin-7-yl)ethyl)amino)-2-hydroxypyrimidine-5-carbonitrile]",
9.0,21.0,1.0,C[C@H](Nc1ncnc(N)c1C(=O)N(C)C)c1cc2ncc(Cl)n2nc1-c1ccccc1 [Compound 56],
−7.1,1.0,31.7,C[C@@H](Nc1ncnc(N)c1C#N)c1cc2ncc(Cl)n2nc1-c1ccc2scnc2c1 [Compound 75],
54.9,48.9,−14.3,C[C@H](Nc1ncnc(N)c1C#N)c1cc2ncc(Cl)n2nc1-c1ccc2ccn(C)c2c1 [Compound 76],

Structure (SMILES),PI3K-β IH% (PI3K-β (p110β/p85α)) [%],PI3K-δ IH% (PI3K-δ (p110δ/p85α)) [%],PI3K-γ IH% (PI3K-γ (p110γ)) [%],further results
C[C@H](Nc1ncnc(N)c1C#N)c1cc2ncc(Cl)n2nc1-c1ccc2c(c1)OCCO2 [Compound 70],37.4,,,IC50 (PI3K-δ (p110δ/p85α)): 22 nM; IC50 (PI3K-γ (p110γ); read-out: PI3K-γ IC50): 1980 nM
"C[C@H](Nc1ncnc(N)c1C#N)c1cc2ncc(F)n2nc1-c1ccccc1 [Compound 78, (S)-4-amino-6-((1-(3-fluoro-6-phenylimidazo[1,2-b]pyridazin-7-yl)ethyl)amino)pyrimidine-5-carbonitrile]",50.1,,,IC50 (PI3K-δ (p110δ/p85α)): 1 nM; IC50 ([3]; Homo sapiens): 7 nM; IC50 [4]: 10 nM
